Among the test systems are SK-MEL-2; TK-10; NCI-H23; COLO 205; SN12C; OVCAR-8; NCI-H522; ACHN; HCT-15; SNB-19; HOP-62; M14; SNB-75; HCC 2998; A549; A498; UO-31; NCI-H226; 786-0; SF-268.
Assay in all cases: NCI tumour cell line growth inhibition, 48 h

Experimental findings from ChEMBL document CHEMBL1201862, “PubChem BioAssay data set” (2004) are described below.

Molecules are shown by their SMILES.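 Cells were grown in 96-well plates and exposed to each compound for 48 hours at five concentrations; endpoints were interpolated linearly between bracketing concentrations, or set to the highest concentration if not reached. The concentration for 50% growth inhibition is given as GI50.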 Activity calls are given as the source filed them. No stated cut-off is given here; in the data, active = GI50 up to about 1.1 µM and inactive = higher. Where only a bound is given, the exact number is not on record here.

For the compound `CCOP(=O)(OCC)C(Cc1c[nH]c2ccccc12)C(=O)O` (stereo not drawn), the GI50 in the test on SK-MEL-2, in the test with TK-10, in the test on NCI-H23, with COLO 205, in the test with SN12C and with OVCAR-8 was > 100 µM (inactive) in each case. Further, the GI50 with NCI-H522 was > 100 µM (inactive); with ACHN, > 100 µM (inactive); with HCT-15 it was > 100 µM; in the test with SNB-19 it was > 100 µM (inactive); in the test with HOP-62, > 100 µM (inactive); in the test with M14, > 100 µM (inactive). The GI50 with SNB-75, with HCC 2998, in the test on A549, in the test with A498, in the test with UO-31 and with NCI-H226 was > 100 µM (inactive) each time.
As to `COc1ccc(CCC2NCCc3cc(OC)c(OC)cc32)cc1` (stereo not drawn), the GI50 with SK-MEL-2, in the test on TK-10, with NCI-H23, in the test with SN12C, in the test on OVCAR-8 and with NCI-H522 was > 100 µM (inactive) in each case. Moreover, the GI50 with ACHN is > 100 µM (inactive); in the test with HCT-15, > 100 µM; with 786-0, > 100 µM (inactive); in the test on SNB-19 it was > 100 µM (inactive); in the test on SF-268, > 100 µM (inactive); with HOP-62, > 100 µM (inactive). Besides, the GI50 in the test on M14 is > 100 µM (inactive); with SNB-75 it was > 100 µM (inactive); in the test with HCC 2998 it was > 100 µM (inactive); with A549 it was > 100 µM (inactive); in the test on A498, > 100 µM (inactive); in the test on UO-31, 88.1 µM (inactive).
`CCOC(=O)c1ccc(C(=O)C(C(C)=O)C(=O)OC(C)(C)C)[nH]1` (stereo not drawn): the GI50 in the test with SK-MEL-2, in the test with NCI-H23, with COLO 205, in the test with SN12C, with OVCAR-8 and with NCI-H522 was > 100 µM (inactive) each time. The GI50 was > 100 µM (inactive) with ACHN; > 100 µM in the test with HCT-15; > 100 µM (inactive) in the test on 786-0; > 100 µM (inactive) in the test with SNB-19; > 100 µM (inactive) in the test on SF-268; > 100 µM (inactive) in the test on HOP-62. The GI50 with M14, in the test with SNB-75, in the test on HCC 2998, in the test on A549, with A498 and in the test with UO-31 was > 100 µM (inactive) each time. Besides, in the test on NCI-H226, the GI50 is > 100 µM (inactive).
For the compound `N#CN=C(N(Cc1ccccc1)Cc1ccccc1)N(Cc1ccccc1)Cc1ccccc1`, the GI50 with SK-MEL-2 was 12 µM (inactive); with COLO 205, 11.7 µM (inactive); in the test with SN12C, 23.4 µM (inactive); in the test on OVCAR-8, 6.7 µM (inactive); with NCI-H522 it was 4.69 µM (inactive); with ACHN it was 4.53 µM (inactive). Moreover, the GI50 in the test with HCT-15 was 6.37 µM; with SNB-19, 28.7 µM (inactive); in the test on SF-268 it was > 100 µM (inactive); in the test with HOP-62, > 100 µM (inactive); in the test with M14 it was 15.3 µM (inactive); with SNB-75 it was 95.7 µM (inactive). Also, the GI50 is 47 µM (inactive) in the test on HCC 2998; 6.44 µM (inactive) in the test with A549; 14.7 µM (inactive) with A498; 5.64 µM (inactive) in the test on UO-31; 32.5 µM (inactive) in the test with NCI-H226.
Consider `CC1=Nc2ccccc2C12C(c1ccccc1)C(c1ccccc1)C(=O)N1c3ccccc3CC12` (stereo not drawn), for which the GI50 in the test on SK-MEL-2, in the test with TK-10, with NCI-H23, in the test on COLO 205, with SN12C and with OVCAR-8 was > 100 µM (inactive) throughout. The GI50 is > 100 µM (inactive) with NCI-H522; > 100 µM (inactive) with ACHN; > 100 µM with HCT-15; > 100 µM (inactive) in the test on 786-0; > 100 µM (inactive) in the test on SNB-19; > 100 µM (inactive) in the test with HOP-62. Further, the GI50 is > 100 µM (inactive) with M14; 73.1 µM (inactive) in the test with SNB-75; > 100 µM (inactive) with HCC 2998; > 100 µM (inactive) with A549; > 100 µM (inactive) in the test on A498; > 100 µM (inactive) with UO-31. In addition, the GI50 in the test on NCI-H226 is > 100 µM (inactive).
Consider `C/C(=C/c1c(C)[nH]c(=O)[nH]c1=O)C(=O)O`, for which the GI50 in the test on NCI-H23 is > 1370 µM (inactive); with COLO 205, > 1370 µM (inactive); in the test on SN12C it was > 1370 µM (inactive); in the test with NCI-H522, > 1370 µM (inactive); in the test with HCT-15, > 1370 µM; with SNB-19 it was > 1370 µM (inactive). Moreover, the GI50 in the test with SF-268, in the test with HOP-62, with SNB-75, with HCC 2998, in the test on A549 and in the test with A498 was > 1370 µM (inactive) each time. Also, the GI50 with UO-31 and with NCI-H226 was > 1370 µM (inactive) each time.
For `C[C@@H]1O[C@]2(O)[C@@H]3CCCN3S(=O)(=O)CCN2C1=O`, the GI50 in the test on TK-10, in the test with NCI-H23, in the test with COLO 205, in the test on SN12C, in the test with OVCAR-8 and with NCI-H522 was > 100 µM (inactive) in each case. In addition, the GI50 in the test on ACHN was > 100 µM (inactive); in the test with HCT-15 it was > 100 µM; in the test with 786-0, > 100 µM (inactive); with SNB-19, > 100 µM (inactive); in the test on SF-268, > 100 µM (inactive); with HOP-62, > 100 µM (inactive). The GI50 in the test on M14, in the test on SNB-75, in the test with HCC 2998, with A549, in the test on A498 and in the test on UO-31 was > 100 µM (inactive) throughout. In addition, the GI50 in the test with NCI-H226 was > 100 µM (inactive).
As for `O=C1/C(=C/c2ccccc2)CCC/C1=C\c1ccccc1` [2,6-DIBENZYLIDENECYCLOHEXANONE], the GI50 is 16.7 µM (inactive) in the test with SK-MEL-2; 17.8 µM (inactive) in the test with TK-10; 12.8 µM (inactive) in the test on NCI-H23; 17.9 µM (inactive) in the test on COLO 205; 16.1 µM (inactive) with SN12C; 8.26 µM (inactive) in the test with OVCAR-8. For the same compound, the GI50 in the test on ACHN is 15.7 µM (inactive); in the test on HCT-15, 8.07 µM; in the test on 786-0 it was 12.8 µM (inactive); in the test with SNB-19, 14.6 µM (inactive); in the test on SF-268, 11 µM (inactive); in the test with HOP-62 it was 21.7 µM (inactive). The GI50 in the test with M14 is 6.44 µM (inactive); in the test with SNB-75, 20.2 µM (inactive); in the test with HCC 2998 it was 12.2 µM (inactive); in the test with A549 it was 19.6 µM (inactive); in the test with A498, 16.1 µM (inactive); in the test on UO-31 it was 18.2 µM (inactive). The GI50 with NCI-H226 is 18.7 µM (inactive).
